Source: patent US6613786B2, “Thiophenyl triazol-3-one derivatives as smooth muscle relaxants” (Bristol-Myers Squibb Company, priority 2001, dated 2003)

Each molecule was assayed on rat bladder strip (assay: in vitro rat bladder strip model: inhibition of 10 μM carbachol induced contraction). Details: 1 h; test compound at 3 μM, one hour incubation; 10 μM carbachol induced contraction of rat bladder strip; percent inhibition over controls, normalized for vehicle effects.
Protocol: The ability of the compounds of the present invention to relax smooth muscle tissue was assessed by their ability to inhibit carbachol induced contractions in mammalian smooth muscle tissue. More specifically, the compounds of the present invention were screened in an in vitro rat bladder strip model to estimate their inhibitory effects on 10 μM carbachol induced contraction of the rat bladder strip according to the following experimental protocol.
1. Bladder Strip Tissue Preparation
Male rats were sacrificed by decapitation, the bladder removed and cleaned of connective tissue. Strips of bladder were then cut from the bladder body and placed in organ baths, suspended between a fixed hook and a force transducer, containing oxygenated physiological buffer maintained at 37° C.
The bladder strips were primed by stimulating them with 10 μM carbachol to evoke a contraction. The strips were then washed multiple times with fresh physiological buffer and allowed to fully relax. Following a period of recovery, the strips were again challenged with 10 μM carbachol to produce a contraction; this contractile response served as control response. The strips were again washed multiple times and allowed to fully relax (45 minutes). Test compound (3 μM) or vehicle was then added to each organ bath. Following a one hour incubation period, the strips were again stimulated with 10 μM carbachol and the contractile response measured.
The percent inhibition of the carbachol response by the test compounds was calculated by comparing control and post-compound carbachol responses normalized for vehicle effects. The percentage inhibition for each compound at 3 μM concentration is provided below in Table 1.
Work on `O=c1[nH]c(-c2ccc(Br)s2)nn1-c1cc(Cl)ccc1O` [Example 1, 5-(5-Bromothiophen-2-yl)-2-(5-chloro-2-hydroxyphenyl)-2,4-dihydro-[1,2,4]triazol-3-one] yielded an inhibition at 3 µM of 35 to 50%. Molecule `O=c1[nH]c(-c2ccc(Cl)s2)nn1-c1cc(Cl)ccc1O` [Example 2, 2-(5-Chloro-2-hydroxyphenyl)-5-(5-chlorothiophen-2-yl)-2,4-dihydro-[1,2,4]triazol-3-one] has an inhibition at 3 µM of 35 to 50%. Molecule `O=c1[nH]c(-c2ccc(I)s2)nn1-c1cc(Cl)ccc1O` [Example 3, 2-(5-Chloro-2-hydroxyphenyl)-5-(5-iodothiophen-2-yl)-2,4-dihydro-[1,2,4]triazol-3-one] has an inhibition at 3 µM of 35 to 50%. For `O=c1[nH]c(-c2cc(Br)cs2)nn1-c1cc(Cl)ccc1O` [Example 4, 5-(4-Bromothiophen-2-yl)-2-(5-chloro-2-hydroxyphenyl)-2,4-dihydro-[1,2,4]triazol-3-one], the inhibition at 3 µM was 35 to 50%. `O=c1[nH]c(-c2cc(Cl)cs2)nn1-c1cc(Cl)ccc1O` [Example 5, 5-(4-Chlorothiophen-2-yl)-2-(5-chloro-2-hydroxyphenyl)-2,4-dihydro-[1,2,4]triazol-3-one] showed an inhibition at 3 µM of 35 to 50%. With `O=c1[nH]c(-c2sccc2Br)nn1-c1cc(Cl)ccc1O` [Example 6, 5-(3-Bromothiophen-2-yl)-2-(5-chloro-2-hydroxyphenyl)-2,4-dihydro-[1,2,4]triazol-3-one] the inhibition at 3 µM was 35 to 50%. With `O=c1[nH]c(-c2sccc2Cl)nn1-c1cc(Cl)ccc1O` [Example 7, 2-(5-Chloro-2-hydroxyphenyl)-5-(3-chlorothiophen-2-yl)-2,4-dihydro-[1,2,4]triazol-3-one] the inhibition at 3 µM was 35 to 50%. With `O=c1[nH]c(-c2sccc2I)nn1-c1cc(Cl)ccc1O` [Example 8, 2-(5-Chloro-2-hydroxyphenyl)-5-(3-iodothiophen-2-yl)-2,4-dihydro-[1,2,4]triazol-3-one] the inhibition at 3 µM was 20 to 35%. Work on `O=c1[nH]c(-c2cc(Br)c(Br)s2)nn1-c1cc(Cl)ccc1O` [Example 9, 2-(5-Chloro-2-hydroxyphenyl)-5-(4,5-dibromothiophen-2-yl)-2,4-dihydro-[1,2,4]triazol-3-one] yielded an inhibition at 3 µM of 5 to 20%. With `O=c1[nH]c(-c2cc(Cl)c(Cl)s2)nn1-c1cc(Cl)ccc1O` [Example 10, 2-(5-Chloro-2-hydroxyphenyl)-5-(4,5-dichlorothiophen-2-yl)-2,4-dihydro-[1,2,4]triazol-3-one] the inhibition at 3 µM was 20 to 35%. `O=c1[nH]c(-c2cc(Br)c(Cl)s2)nn1-c1cc(Cl)ccc1O` [Example 11, 5-(4-Bromo-5-chlorothiophen-2-yl)-2-(5-chloro-2-hydroxyphenyl)-2,4-dihydro-[1,2,4]triazol-3-one] showed an inhibition at 3 µM of 20 to 35%. `O=c1[nH]c(-c2scc(Br)c2Br)nn1-c1cc(Cl)ccc1O` [Example 12, 2-(5-Chloro-2-hydroxyphenyl)-5-(3,4-dibromothiophen-2-yl)-2,4-dihydro-[1,2,4]triazol-3-one] gave an inhibition at 3 µM of 20 to 35%. In the case of `O=c1[nH]c(-c2scc(Cl)c2Cl)nn1-c1cc(Cl)ccc1O` [Example 13, 2-(5-Chloro-2-hydroxyphenyl)-5-(3,4-dichlorothiophen-2-yl)-2,4-dihydro-[1,2,4]triazol-3-one], the inhibition at 3 µM is reported as 35 to 50%. Work on `O=c1[nH]c(-c2sc(Br)cc2Br)nn1-c1cc(Cl)ccc1O` [Example 14, 2-(5-Chloro-2-hydroxyphenyl)-5-(3,5-dibromothiophen-2-yl)-2,4-dihydro-[1,2,4]triazol-3-one] yielded an inhibition at 3 µM of 35 to 50%. `O=c1[nH]c(-c2sc(Br)c(Br)c2Br)nn1-c1cc(Cl)ccc1O` [Example 15, 2-(5-Chloro-2-hydroxyphenyl)-5-(3,4,5-tribromothiophen-2-yl)-2,4-dihydro-[1,2,4]triazol-3-one] showed an inhibition at 3 µM of 5 to 20%. Molecule `O=c1[nH]c(-c2sc(Cl)c(Cl)c2Cl)nn1-c1cc(Cl)ccc1O` [Example 16, 2-(5-Chloro-2-hydroxyphenyl)-5-(3,4,5-trichlorothiophen-2-yl)-2,4-dihydro-[1,2,4]triazol-3-one] has an inhibition at 3 µM of 20 to 35%. In the case of `Cc1sc(-c2nn(-c3cc(Cl)ccc3O)c(=O)[nH]2)cc1Br` [Example 17, 5-(4-Bromo-5-methylthiophen-2-yl)-2-(5-chloro-2-hydroxyphenyl)-2,4-dihydro-[1,2,4]triazol-3-one], the inhibition at 3 µM is reported as 20 to 35%. Work on `O=c1[nH]c(-c2cc(Br)sc2Br)nn1-c1cc(Cl)ccc1O` [Example 18, 2-(5-Chloro-2-hydroxyphenyl)-5-(2,5-dibromothiophen-3-yl)-2,4-dihydro-[1,2,4]triazol-3-one] yielded an inhibition at 3 µM of 20 to 35%. Work on `O=c1[nH]c(-c2cc(Cl)sc2Cl)nn1-c1cc(Cl)ccc1O` [Example 19, 2-(5-Chloro-2-hydroxyphenyl)-5-(2,5-dichlorothiophen-3-yl)-2,4-dihydro-[1,2,4]triazol-3-one] yielded an inhibition at 3 µM of 35 to 50%. Molecule `C=CCc1cc(Cl)cc(-n2nc(-c3ccc(Br)s3)[nH]c2=O)c1O` [Example 20, 2-(3-Allyl-5-chloro-2-hydroxyphenyl)-5-(5-bromothiophen-2-yl)-2,4-dihydro-[1,2,4]triazol-3-one] has an inhibition at 3 µM of 20 to 35%. `O=c1[nH]c(-c2ccc(Br)s2)nn1-c1cc(Cl)cc(Br)c1O` [Example 21, 2-(3-Bromo-5-chloro-2-hydroxyphenyl)-5-(5-bromothiophen-2-yl)-2,4-dihydro-[1,2,4]triazol-3-one] showed an inhibition at 3 µM of 20 to 35%. Molecule `Cc1cc(Cl)cc(-n2nc(-c3ccc(Br)s3)[nH]c2=O)c1O` [Example 22, 5-(5-Bromothiophen-2-yl)-2-(5-chloro-2-hydroxy-3-methylphenyl)-2,4-dihydro-[1,2,4]triazol-3-one] has an inhibition at 3 µM of 20 to 35%. With `O=c1[nH]c(-c2ccc(Br)s2)nn1-c1cc(Cl)cc(Cl)c1O` [Example 23, 5-(5-Bromothiophen-2-yl)-2-(3,5-dichloro-2-hydroxyphenyl)-2,4-dihydro-[1,2,4]triazol-3-one] the inhibition at 3 µM was 20 to 35%. `Cc1cc(O)c(-n2nc(-c3ccc(Br)s3)[nH]c2=O)cc1Cl` [Example 24, 5-(5-Bromothiophen-2-yl)-2-(5-chloro-2-hydroxy-4-methylphenyl)-2,4-dihydro-[1,2,4]triazol-3-one] was tested, and the inhibition at 3 µM was 20 to 35%. `O=c1[nH]c(-c2ccc(Br)s2)nn1-c1cc(Cl)c(Br)cc1O` [Example 25, 2-(4-Bromo-5-chloro-2-hydroxyphenyl)-5-(5-bromothiophen-2-yl)-2,4-dihydro-[1,2,4]triazol-3-one] showed an inhibition at 3 µM of 20 to 35%. `O=c1[nH]c(-c2ccc(Br)s2)nn1-c1cc(C(F)(F)F)ccc1O` [Example 26, 5-(5-Bromothiophen-2-yl)-2-(2-hydroxy-5-trifluoromethylphenyl)-2,4-dihydro-[1,2,4]triazol-3-one] showed an inhibition at 3 µM of 35 to 50%. Work on `O=c1[nH]c(-c2ccc(Br)s2)nn1-c1cc(Br)ccc1O` [Example 27, 2-(5-Bromo-2-hydroxyphenyl)-5-(5-bromothiophen-2-yl)-2,4-dihydro-[1,2,4]triazol-3-one] yielded an inhibition at 3 µM of 35 to 50%. Work on `O=c1[nH]c(-c2ccc(Br)s2)nn1-c1cc(F)ccc1O` [Example 28, 5-(5-Bromothiophen-2-yl)-2-(5-fluoro-2-hydroxyphenyl)-2,4-dihydro-[1,2,4]triazol-3-one] yielded an inhibition at 3 µM of 20 to 35%. Molecule `CC=Cc1cc(Cl)cc(-n2nc(-c3ccc(Br)s3)[nH]c2=O)c1O` [Example 29, 5-(5-Bromothiophen-2-yl)-2-(5-chloro-2-hydroxy-3-(prop-1-en-1-yl)phenyl)-2,4-dihydro-[1,2,4]triazol-3-one] has an inhibition at 3 µM of 20 to 35%. `CCCc1cc(Cl)cc(-n2nc(-c3cccs3)[nH]c2=O)c1O` [Example 30, 2-(5-Chloro-2-hydroxy-3-propylphenyl)-5-(thiophen-2-yl)-2,4-dihydro-[1,2,4]triazol-3-one] was tested, and the inhibition at 3 µM was 20 to 35%. `O=c1[nH]c(-c2ccc(Cl)s2)nn1-c1cc(Br)ccc1O` [Example 31, 2-(5-Bromo-2-hydroxyphenyl)-5-(5-chlorothiophen-2-yl)-2,4-dihydro-[1,2,4]triazol-3-one] gave an inhibition at 3 µM of 20 to 35%. With `O=c1[nH]c(-c2ccc(Cl)s2)nn1-c1cc(F)ccc1O` [Example 32, 5-(5-Chlorothiophen-2-yl)-2-(5-fluoro-2-hydroxyphenyl)-2,4-dihydro-[1,2,4]triazol-3-one] the inhibition at 3 µM was 35 to 50%.
